# Assays:
# Assay in all cases: Greenhouse whole-plant imazapir dose response (Example 8)
# Type in all cases: in vivo, Helianthus annuus
# [1] = test system: sunflower TH12 (Restorer Line, A122T); conditions: 14 DAT
# Procedure: (§1) A greenhouse study was conducted to quantify and contrast the imazapir sensitivity of the mutants A122T and A205V in different genetic backgrounds at the whole plant level in sunflower. Seeds of the different sunflower lines that were used in this study were obtained under field conditions.
# (§2) Seeds were sown in Petri dishes and, after germination, plantlets were transplanted to pots of 10 cm of diameter in a potting media consisting of equal parts of vermiculite, soil and sand. Plants were grown in a greenhouse under natural light conditions supplemented with 400 W sodium halide lamps to provide a 16 hrs daylength. Day/night temperatures were 25 and 20° C., respectively. At the V2 stage 10 plants of each genotype were randomly assigned to each treatment consisting of […] imazapir doses (0, 40, 80, 160, 240, 320, 400 and 480 g ai/ha), and a zero-time biomass determination. Experiment was arranged as a randomized block design with a full factorial (sunflower line×treatment) arrangement of treatments and 10 replications.
# (§3) On the day of herbicide application ten plants of each genotype were cut at the cotyledonal node and dried at 60° C. for 48 hrs zero-time for dried weight determination. […] Height was determined as the distance between the cotyledonal node and the apex of each plant. For root biomass determination, each plant was taken from the pot and the potting media was washed out from the roots. Above ground biomass data from each line were converted to biomass accumulation after application by subtracting the appropriate average zero-time biomass from each sample. Dry biomass data were converted to percentages of the untreated control plants within each line to allow direct comparisons between groups.
# [2] = test system: sunflower GIM 5-6 (Restorer Line, A122T); conditions: GIM5-6, 14 DAT
# Procedure: as §1, §2, §3
# [3] = test system: sunflower IR79 (Restorer Line, A205V); conditions: 14 DAT
# Procedure: as §1, §2, §3
# [4] = test system: sunflower TH10 (Restorer Line, A205V); conditions: 14 DAT
# Procedure: as §1, §2, §3
# [5] = test system: sunflower GM1606 (Manteiner Line, A122T); conditions: 14 DAT
# Procedure: as §1, §2, §3
smiles,measurement,setting,value
"CC(C)C1(C)N=C(c2ncccc2C(=O)O)NC1=O (centres unmarked) [imazapir, imazapyr]",Phytotoxicity Index,[1]; 0.5× (40 g ai/ha),0.0
same,"biomass accumulation (dry biomass, % of untreated)",[1]; 0.5× (40 g ai/ha),100.0%
same,plant height (% of untreated),[1]; 0.5× (40 g ai/ha),100.0%
same,root dry weight (% of untreated),[1]; 0.5× (40 g ai/ha),99.4%
same,Phytotoxicity Index,[1]; 1× (80 g ai/ha),0.0
same,"biomass accumulation (dry biomass, % of untreated)",[1]; 1× (80 g ai/ha),99.1%
same,plant height (% of untreated),[1]; 1× (80 g ai/ha),100.0%
same,root dry weight (% of untreated),[1]; 1× (80 g ai/ha),100%
same,Phytotoxicity Index,[1]; 2× (160 g ai/ha),0.0
same,"biomass accumulation (dry biomass, % of untreated)",[1]; 2× (160 g ai/ha),97.0%
same,plant height (% of untreated),[1]; 2× (160 g ai/ha),101.8%
same,root dry weight (% of untreated),[1]; 2× (160 g ai/ha),100%
same,Phytotoxicity Index,[1]; 3× (240 g ai/ha),0.0
same,"biomass accumulation (dry biomass, % of untreated)",[1]; 3× (240 g ai/ha),96.1%
same,plant height (% of untreated),[1]; 3× (240 g ai/ha),97.0%
same,root dry weight (% of untreated),[1]; 3× (240 g ai/ha),100.0%
same,Phytotoxicity Index,[1]; 4× (320 g ai/ha),0.0
same,"biomass accumulation (dry biomass, % of untreated)",[1]; 4× (320 g ai/ha),84.3%
same,plant height (% of untreated),[1]; 4× (320 g ai/ha),92.1%
same,root dry weight (% of untreated),[1]; 4× (320 g ai/ha),74.5%
same,Phytotoxicity Index,[1]; 5× (400 g ai/ha),0.0
same,"biomass accumulation (dry biomass, % of untreated)",[1]; 5× (400 g ai/ha),77.5%
same,plant height (% of untreated),[1]; 5× (400 g ai/ha),84.8%
same,root dry weight (% of untreated),[1]; 5× (400 g ai/ha),65.0%
same,Phytotoxicity Index,[1]; 6× (480 g ai/ha),0.5
same,"biomass accumulation (dry biomass, % of untreated)",[1]; 6× (480 g ai/ha),70.7%
same,plant height (% of untreated),[1]; 6× (480 g ai/ha),79.8%
same,root dry weight (% of untreated),[1]; 6× (480 g ai/ha),57.8%
same,"biomass accumulation (dry biomass, % of untreated)",[2]; 0.5× (40 g ai/ha),100.0%
same,plant height (% of untreated),[2]; 0.5× (40 g ai/ha),100.0%
same,root dry weight (% of untreated),[2]; 0.5× (40 g ai/ha),100%
same,"biomass accumulation (dry biomass, % of untreated)",[2]; 1× (80 g ai/ha),96.4%
same,plant height (% of untreated),[2]; 1× (80 g ai/ha),100.0%
same,root dry weight (% of untreated),[2]; 1× (80 g ai/ha),88.0%
same,"biomass accumulation (dry biomass, % of untreated)",[2]; 2× (160 g ai/ha),97.7%
same,plant height (% of untreated),[2]; 2× (160 g ai/ha),99.1%
same,root dry weight (% of untreated),[2]; 2× (160 g ai/ha),90.0%
same,"biomass accumulation (dry biomass, % of untreated)",[2]; 3× (240 g ai/ha),95.8%
same,plant height (% of untreated),[2]; 3× (240 g ai/ha),98.1%
same,root dry weight (% of untreated),[2]; 3× (240 g ai/ha),98.0%
same,"biomass accumulation (dry biomass, % of untreated)",[2]; 4× (320 g ai/ha),90.8%
same,plant height (% of untreated),[2]; 4× (320 g ai/ha),91.0%
same,root dry weight (% of untreated),[2]; 4× (320 g ai/ha),80.0%
same,"biomass accumulation (dry biomass, % of untreated)",[2]; 5× (400 g ai/ha),81.9%
same,plant height (% of untreated),[2]; 5× (400 g ai/ha),94.3%
same,root dry weight (% of untreated),[2]; 5× (400 g ai/ha),80.0%
same,"biomass accumulation (dry biomass, % of untreated)",[2]; 6× (480 g ai/ha),78.0%
same,plant height (% of untreated),[2]; 6× (480 g ai/ha),85.8%
same,root dry weight (% of untreated),[2]; 6× (480 g ai/ha),65.8%
same,"biomass accumulation (dry biomass, % of untreated)",[3]; 0.5× (40 g ai/ha),94.4%
same,plant height (% of untreated),[3]; 0.5× (40 g ai/ha),92.8%
same,root dry weight (% of untreated),[3]; 0.5× (40 g ai/ha),98.6%
same,"biomass accumulation (dry biomass, % of untreated)",[3]; 1× (80 g ai/ha),74.0%
same,plant height (% of untreated),[3]; 1× (80 g ai/ha),80.9%
same,root dry weight (% of untreated),[3]; 1× (80 g ai/ha),53.4%
same,"biomass accumulation (dry biomass, % of untreated)",[3]; 2× (160 g ai/ha),67.7%
same,plant height (% of untreated),[3]; 2× (160 g ai/ha),74.9%
same,root dry weight (% of untreated),[3]; 2× (160 g ai/ha),42.5%
same,"biomass accumulation (dry biomass, % of untreated)",[3]; 3× (240 g ai/ha),49.1%
same,plant height (% of untreated),[3]; 3× (240 g ai/ha),55.7%
same,root dry weight (% of untreated),[3]; 3× (240 g ai/ha),38.4%
same,"biomass accumulation (dry biomass, % of untreated)",[3]; 4× (320 g ai/ha),44.5%
same,plant height (% of untreated),[3]; 4× (320 g ai/ha),52.8%
same,root dry weight (% of untreated),[3]; 4× (320 g ai/ha),31.5%
same,"biomass accumulation (dry biomass, % of untreated)",[3]; 5× (400 g ai/ha),40.1%
same,plant height (% of untreated),[3]; 5× (400 g ai/ha),41.7%
same,root dry weight (% of untreated),[3]; 5× (400 g ai/ha),23.3%
same,"biomass accumulation (dry biomass, % of untreated)",[3]; 6× (480 g ai/ha),35.3%
same,plant height (% of untreated),[3]; 6× (480 g ai/ha),33.2%
same,root dry weight (% of untreated),[3]; 6× (480 g ai/ha),21.9%
same,Phytotoxicity Index,[4]; 0.5× (40 g ai/ha),0
same,"biomass accumulation (dry biomass, % of untreated)",[4]; 0.5× (40 g ai/ha),99.2%
same,plant height (% of untreated),[4]; 0.5× (40 g ai/ha),99.2%
same,root dry weight (% of untreated),[4]; 0.5× (40 g ai/ha),90.3%
same,Phytotoxicity Index,[4]; 1× (80 g ai/ha),0
same,"biomass accumulation (dry biomass, % of untreated)",[4]; 1× (80 g ai/ha),85.0%
same,plant height (% of untreated),[4]; 1× (80 g ai/ha),98.1%
same,root dry weight (% of untreated),[4]; 1× (80 g ai/ha),69.9%
same,Phytotoxicity Index,[4]; 2× (160 g ai/ha),3.1
same,"biomass accumulation (dry biomass, % of untreated)",[4]; 2× (160 g ai/ha),58.1%
same,plant height (% of untreated),[4]; 2× (160 g ai/ha),63.6%
same,root dry weight (% of untreated),[4]; 2× (160 g ai/ha),41.3%
same,Phytotoxicity Index,[4]; 3× (240 g ai/ha),3.9
same,"biomass accumulation (dry biomass, % of untreated)",[4]; 3× (240 g ai/ha),48.1%
same,plant height (% of untreated),[4]; 3× (240 g ai/ha),51.9%
same,root dry weight (% of untreated),[4]; 3× (240 g ai/ha),42.8%
same,Phytotoxicity Index,[4]; 4× (320 g ai/ha),5.9
same,"biomass accumulation (dry biomass, % of untreated)",[4]; 4× (320 g ai/ha),28.8%
same,plant height (% of untreated),[4]; 4× (320 g ai/ha),27.5%
same,root dry weight (% of untreated),[4]; 4× (320 g ai/ha),22.3%
same,Phytotoxicity Index,[4]; 5× (400 g ai/ha),6.9
same,"biomass accumulation (dry biomass, % of untreated)",[4]; 5× (400 g ai/ha),27.4%
same,plant height (% of untreated),[4]; 5× (400 g ai/ha),28.0%
same,root dry weight (% of untreated),[4]; 5× (400 g ai/ha),22.7%
same,Phytotoxicity Index,[4]; 6× (480 g ai/ha),6.7
same,"biomass accumulation (dry biomass, % of untreated)",[4]; 6× (480 g ai/ha),24.9%
same,plant height (% of untreated),[4]; 6× (480 g ai/ha),29.3%
same,root dry weight (% of untreated),[4]; 6× (480 g ai/ha),16.4%
same,"biomass accumulation (dry biomass, % of untreated)",[5]; 0.5× (40 g ai/ha),100.0%
same,plant height (% of untreated),[5]; 0.5× (40 g ai/ha),97.0%
same,root dry weight (% of untreated),[5]; 0.5× (40 g ai/ha),100%
same,"biomass accumulation (dry biomass, % of untreated)",[5]; 1× (80 g ai/ha),100.0%
same,plant height (% of untreated),[5]; 1× (80 g ai/ha),95.7%
same,root dry weight (% of untreated),[5]; 1× (80 g ai/ha),100.0%
same,"biomass accumulation (dry biomass, % of untreated)",[5]; 2× (160 g ai/ha),97.6%
same,plant height (% of untreated),[5]; 2× (160 g ai/ha),95.2%
same,root dry weight (% of untreated),[5]; 2× (160 g ai/ha),92.5%
same,"biomass accumulation (dry biomass, % of untreated)",[5]; 3× (240 g ai/ha),95.4%
same,plant height (% of untreated),[5]; 3× (240 g ai/ha),95.7%
same,root dry weight (% of untreated),[5]; 3× (240 g ai/ha),85.2%
same,"biomass accumulation (dry biomass, % of untreated)",[5]; 4× (320 g ai/ha),90.5%
same,plant height (% of untreated),[5]; 4× (320 g ai/ha),94.1%
same,root dry weight (% of untreated),[5]; 4× (320 g ai/ha),87.0%
same,"biomass accumulation (dry biomass, % of untreated)",[5]; 5× (400 g ai/ha),85.3%
same,plant height (% of untreated),[5]; 5× (400 g ai/ha),94.3%
same,root dry weight (% of untreated),[5]; 5× (400 g ai/ha),88.1%
same,"biomass accumulation (dry biomass, % of untreated)",[5]; 6× (480 g ai/ha),83.0%
same,plant height (% of untreated),[5]; 6× (480 g ai/ha),91.4%
same,root dry weight (% of untreated),[5]; 6× (480 g ai/ha),69.5%
